Drawing on ChEMBL document CHEMBL1148037, “Effect of Fungal Natural Products in an Agrobacterium tumefaciens Potato Disc Assay” (1994), this text covers Activity for 16 molecules.

SMILES strings stand for the structures. Active and inactive are the calls of the source. The calls are words filed in the database; no cut-off is given here.

In experiment [1] the test system is Agrobacterium tumefaciens. Briefly: Antitumor activity against Agrobacterium tumefaciens B6-induced crown-gall tumor formation in potato assessed as tumor induction at 25 ug/disk after 12 days at 27 degC by potato disk assay relative to control. The class given is functional.
In a further experiment the test system is Chaetomium. Briefly: Antifungal activity against Chaetomium at 50 to 500 ug/disk by paper-disk-plate technique. The experiment is classed as functional, organism-based.
The test system of experiment [2] is Agrobacterium tumefaciens. Briefly: Antitumor activity against Agrobacterium tumefaciens B6-induced crown-gall tumor formation in potato assessed as tumor induction at 10 ug/disk after 12 days at 27 degC by potato disk assay relative to control. The class given is functional.
Experiment [3] has as its system Agrobacterium tumefaciens. Briefly: Antitumor activity against Agrobacterium tumefaciens B6-induced crown-gall tumor formation in potato assessed as tumor induction at 5 ug/disk after 12 days at 27 degC by potato disk assay relative to control. The class given is functional.
In experiment [4] the test system is Agrobacterium tumefaciens. The experiment is described as follows: Antibacterial activity against Agrobacterium tumefaciens at 50 to 500 ug/disk by paper-disk-plate technique. The class given is functional, organism-based.
The subject of experiment [5] is Agrobacterium tumefaciens. Briefly: Antitumor activity against Agrobacterium tumefaciens B6-induced crown-gall tumor formation in potato assessed as tumor induction at 50 ug/disk after 12 days at 27 degC by potato disk assay relative to control. The experiment is classed as functional.
The next experiment has as its system Enterobacter cloacae. The experiment is described as follows: Antibacterial activity against Enterobacter cloacae at 50 to 500 ug/disk by paper-disk-plate technique. The class given is functional, organism-based.
The test system of the next experiment is Bacillus subtilis. The experiment is described as follows: Antibacterial activity against Bacillus subtilis at 50 to 500 ug/disk by paper-disk-plate technique. The class given is functional, organism-based.
The next experiment relates to Curvularia lunata. The experiment is described as follows: Antifungal activity against Curvularia lunata at 50 to 500 ug/disk by paper-disk-plate technique. The experiment is classed as functional, organism-based.
In the next experiment the test system is Citrobacter freundii. Briefly: Antibacterial activity against Citrobacter freundii at 50 to 500 ug/disk by paper-disk-plate technique. The experiment is classed as functional, organism-based.
For the next experiment, the system named is Aspergillus flavus. The experiment is described as follows: Antifungal activity against Aspergillus flavus at 50 to 500 ug/disk by paper-disk-plate technique. The class given is functional, organism-based.
The test system of the next experiment is Bacillus cereus. The experiment is described as follows: Antibacterial activity against Bacillus cereus at 50 to 500 ug/disk by paper-disk-plate technique. The experiment is classed as functional, organism-based.
The subject of a further experiment is Escherichia coli. Briefly: Antibacterial activity against Escherichia coli at 50 to 500 ug/disk by paper-disk-plate technique. The class given is functional, organism-based.
The subject of experiment [6] is Brochothrix thermosphacta. Briefly: Antibacterial activity against Microbacterium thermosphactum at 50 to 500 ug/disk by paper-disk-plate technique. The class given is functional, organism-based.

Take `CCCCCc1cccc(=O)o1`: in experiment [1], the Activity is -35.5%.
`CO[C@]12c3c(C)cc(O)c4c(=O)occ(c34)C(=O)[C@H]1[C@]13COC(=O)c4c(O)cc(C)c(c41)C(=O)[C@H]2[C@@H]3OC(C)=O`: the result (in the experiment on Chaetomium; in experiment [4]; with Enterobacter cloacae; in the experiment with Bacillus subtilis; in the experiment on Curvularia lunata; with Citrobacter freundii) was inactive. Besides, the result (with Aspergillus flavus; with Bacillus cereus; in the experiment with Escherichia coli; in [6]) was inactive. Besides, the Activity in [2] is reported as -74%; in experiment [3], -67%; in experiment [5] it was -94%; in experiment [1], -95%.
Regarding `CC(=C\C(=O)O)/C=C(\C)C[C@H](C)CCCC[C@H]1OC(=O)[C@@H]1CO` [ANTIBIOTIC 1233A], the Activity in [1] is listed as -39%.
On the same count and under the same terms, with `C[C@H]1CCC/C=C/[C@@H]2C[C@H](O)C[C@H]2[C@H](O)/C=C/C(=O)O1` [BREFELDIN A] the figure was -62%; with `CC[C@@]1(O)C(=O)OCc2c1cc1n(c2=O)Cc2cc3ccccc3nc2-1` [CAMPTOTHECIN], -100%.
With `CC[C@H]1C2[C@H]([C@@H](C)c3c[nH]c4ccccc34)NC(=O)[C@@]23C(=O)/C=C\C(=O)[C@H](O)/C(C)=C\[C@@H](C)C/C=C/[C@H]3[C@@H]2O[C@]12C` (some centres undefined) [CHAETOGLOBOSIN K], the outcome (in the experiment on Chaetomium; in experiment [4]; with Enterobacter cloacae; in the experiment on Bacillus subtilis; in the experiment on Curvularia lunata; in the experiment on Citrobacter freundii) was inactive. The outcome (in the experiment on Aspergillus flavus; in the experiment on Bacillus cereus; in the experiment with Escherichia coli; in experiment [6]) was inactive. The Activity is given as -97% in experiment [2], -74% in experiment [3], -100% in experiment [5] and -94% in experiment [1].
Regarding `CC1=C2C(=CO[C@H](C)[C@H]2C)C(O)=C(C(=O)O)C1=O` [CITRININ], the Activity in experiment [1] is on record as -26%.
As to `C[C@H]1CCC[C@H](C[C@H]2Cc3cc(O)cc(O)c3C(=O)O2)O1` [CLADOSPORIN], the Activity in experiment [2] is -16%; in experiment [3], -14%; in experiment [5], -90%; in [1], -79%.
For the molecule `CC[C@@H]1CCc2occ(CO)c(=O)c2[C@H]1O` [DIPLODIOL], the outcome (in the experiment with Chaetomium; in [4]; in the experiment with Enterobacter cloacae; in the experiment on Bacillus subtilis; in the experiment with Curvularia lunata; with Citrobacter freundii) was inactive. Besides, the outcome (in the experiment on Aspergillus flavus; in the experiment with Bacillus cereus; in the experiment on Escherichia coli; in [6]) was inactive. The Activity in experiment [2] is listed as -73%; in [3] it was -70%; in experiment [5], -75%; in [1], -96.3%.
Consider `CCCCCC[C@@H]1O[C@]23O[C@H]1CC[C@H]2[C@@H](O)CC[C@H]3O` [KONINGININ A], for which the Activity in experiment [1] came to 75%.
Still for that read-out and setting: with `CCCCCC[C@@H](O)[C@H]1CCC2=C(O1)[C@@H](O)CCC2=O` [KONINGININ B] the figure was 1%.
`C[C@@H]1C/C=C/CCCCC(=O)Cc2cc(O)cc(O)c2C(=O)O1` [MONOCILLIN IV]: the result (with Chaetomium; in [4]; in the experiment with Enterobacter cloacae; in the experiment on Bacillus subtilis; in the experiment on Curvularia lunata; with Citrobacter freundii) was inactive. For the same molecule, the outcome (in the experiment with Aspergillus flavus; in the experiment on Bacillus cereus; in the experiment on Escherichia coli; in [6]) was inactive. Further, the Activity in experiment [2] is on record as -63%; in experiment [3], -8%; in experiment [5] it was -75%; in experiment [1], -78%.
`O=C1C=C2C(=CCOC2O)O1` (centres undefined) [PATULIN]: in [1], the Activity is reported as -66%.
Consider `CC(C)=C1Oc2c(ccc3c2COC(C)(O)C3)C1=O` (centres undefined) [PERGILLIN], for which, in [1], the Activity was -68.9%.
Take `C[C@@H]1C[C@H]2O[C@@H]2/C=C\C=C\C(=O)Cc2c(Cl)c(O)cc(O)c2C(=O)O1` [RADICICOL]: the Activity in experiment [2] is -94%; in experiment [3], -76%; in [5] it was -100%; in [1], -75%.
As for `O=C(O)/C=C/CCCCCCCCC(=O)O` [TRAUMATIC ACID], in [1], the Activity turned out to be 28.4%.
